In patent US20250296971A1, “GASTRIC INHIBITORY PEPTIDE RECEPTOR LIGANDS” (priority 2021, published 2025):
*1 amine or outer side, *2 acyl side, *3 side chain or, on linkers, in order; H or OH if unused. Where a SMILES comes first, the peptide text is derived from it. Bridges are numbered along the chain shown (N, C = ends). [ ]: non-standard residue; d: D form. Trp(5-Cl) = N[C@@H](Cc1c[nH]c2ccc(Cl)cc12)C(=O)O; Phe(3,5-Cl2) = N[C@@H](Cc1cc(Cl)cc(Cl)c1)C(=O)O; Pyridine(2,6-diCH2) = c1cc(C[*:1])nc(C[*:2])c1; Oic = O=C(O)[C@@H]1C[C@@H]2CCCC[C@@H]2N1; Phe(2-Cl) = N[C@@H](Cc1ccccc1Cl)C(=O)O; 1Nal = N[C@@H](Cc1cccc2ccccc12)C(=O)O; mXylylene = c1cc(C[*:1])cc(C[*:2])c1; X7 = c1cc(CSCCN[*:2])cc(C[*:1])c1; Hyp = O=C(O)[C@@H]1C[C@@H](O)CN1; Suc = O=C(CCC(=O)[*:2])[*:1]; hLeu = CC(C)CC[C@H](N)C(=O)O; Pip = O=C(O)[C@@H]1CCCCN1; Thp = NC1(C(=O)O)CCOCC1; Aib = CC(C)(N)C(=O)O

Biological target: T1, GIPR (CHO-K1-hGIPR cells) (Homo sapiens, UniProt P48546)
T1 construct: host or cells: CHO-K1
T1 sequence (P48546 22-466): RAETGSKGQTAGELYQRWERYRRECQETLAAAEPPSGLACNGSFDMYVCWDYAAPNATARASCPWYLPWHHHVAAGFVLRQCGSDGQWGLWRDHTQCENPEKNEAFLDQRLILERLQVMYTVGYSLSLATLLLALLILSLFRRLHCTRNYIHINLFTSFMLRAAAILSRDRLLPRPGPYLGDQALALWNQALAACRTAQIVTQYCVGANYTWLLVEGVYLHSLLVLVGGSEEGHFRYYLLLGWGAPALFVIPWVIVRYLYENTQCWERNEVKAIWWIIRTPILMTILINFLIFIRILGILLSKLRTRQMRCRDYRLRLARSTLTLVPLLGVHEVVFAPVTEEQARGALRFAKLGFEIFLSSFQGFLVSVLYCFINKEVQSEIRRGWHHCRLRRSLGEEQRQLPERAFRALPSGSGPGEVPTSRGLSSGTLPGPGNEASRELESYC
Assay: FACS binding assay
Conditions: competition with 20 nM GIP-057, 4° C. for 1 hour, read-out: pIC50 Category (converted)
In short: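 Read-out: flow cytometric median fluorescence intensity, APC/Cy5 channel, plotted vs peptide conc.; 4PL fit → EC50/pEC50 or IC50/pIC50. Cells: CHO-K1-hGIPR, Accutase-detached, 500.000/mL in PBS + 1% FCS. Detection: APC-streptavidin 1 μg/mL, 30 min, on ice.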

IC50 [nM] | SMILES
10 to 79.4 | CC[C@H](C)[C@@H]1NC(=O)[C@H](CC(C)C)NC(=O)[C@H](C)NC(=O)[C@@H](NC(=O)[C@H](CC(C)C)NC(=O)[C@H](CCC(=O)O)NC(=O)[C@@H]2CCCN2C(=O)[C@H](Cc2c[nH]c3ccccc23)NC(=O)[C@H](Cc2c[nH]c3ccccc23)NC(=O)[C@H](CC(=O)O)NC(=O)[C@H](C)NC(=O)[C@@H](N)CCSC)CSCc2cccc(c2)CSC[C@@H](C(N)=O)NC1=O [GIP-249] (H-MADWWPELCALIC-NH2; linker 9-13 via mXylylene)
10 to 79.4 | CC[C@H](C)[C@@H]1NC(=O)[C@H](CC(C)C)NC(=O)[C@@H](C)NC(=O)[C@@H](NC(=O)[C@H](CC(C)C)NC(=O)[C@H](CCC(=O)O)NC(=O)[C@@H]2CCCN2C(=O)[C@H](Cc2c[nH]c3ccccc23)NC(=O)[C@H](Cc2c[nH]c3ccccc23)NC(=O)[C@H](CC(=O)O)NC(C)=O)CSCc2cccc(c2)CSCCNC1=O [GIP-250, Ac-Asp-Trp-Trp-Pro-Glu-Leu-[Cys(3MeBn)-ala-Leu-Ile-AET]] (Ac-DWWPELC[dA]LI; linker 7-C via X7)
10 to 79.4 | CC[C@H](C)[C@@H]1NC(=O)[C@H](CC(C)C)NC(=O)C(C)(C)NC(=O)[C@@H](NC(=O)[C@H](CC(C)C)NC(=O)[C@H](CCC(=O)O)NC(=O)[C@@H]2CCCN2C(=O)[C@H](Cc2c[nH]c3ccccc23)NC(=O)[C@H](Cc2c[nH]c3ccccc23)NC(=O)[C@H](CC(=O)O)NC(C)=O)CSCc2cccc(c2)CSCCNC1=O [GIP-251, Ac-Asp-Trp-Tip-Pro-Glu-Leu-[Cys(3MeBn)-Aib-Leu-Ile-AET]] (Ac-DWWPELC[Aib]LI; linker 7-C via X7)
10 to 79.4 | CC[C@H](C)[C@@H]1NC(=O)[C@H](CC(C)C)NC(=O)C(C)(C)NC(=O)[C@@H](NC(=O)[C@H](CC(C)C)NC(=O)[C@H](CCC(=O)O)NC(=O)[C@@H]2C[C@@H]3CCCC[C@@H]3N2C(=O)[C@H](Cc2cccc3ccccc23)NC(=O)[C@H](Cc2c[nH]c3ccccc23)NC(=O)[C@H](CC(=O)O)NC(C)=O)CSCc2cccc(c2)CSC[C@@H](C(N)=O)NC1=O [GIP-252, Ac-Asp-Trp-1Ni-Pip-Glu-Leu-[Cys(3MeBn)-Aib-Leu-Ile-Cys]-NH2] (Ac-DW[1Nal][Oic]ELC[Aib]LIC-NH2; linker 7-11 via mXylylene)
10 to 79.4 | CC[C@H](C)[C@@H]1NC(=O)[C@H](CC(C)C)NC(=O)C(C)(C)NC(=O)[C@@H](NC(=O)[C@H](CC(C)C)NC(=O)[C@H](CCC(=O)O)NC(=O)[C@@H]2CCCCN2C(=O)[C@H](Cc2cccc3ccccc23)NC(=O)[C@H](Cc2c[nH]c3ccccc23)NC(=O)[C@H](CC(=O)O)NC(C)=O)CSCc2cccc(c2)CSC[C@@H](C(N)=O)NC1=O [GIP-253, Ac-Asp-Trp-1Ni-Pip-Glu-Leu-[Cys(3MeBn)-Aib-Leu-Ile-Cys]-NH2] (Ac-DW[1Nal][Pip]ELC[Aib]LIC-NH2; linker 7-11 via mXylylene)
10 to 79.4 | CC[C@H](C)[C@@H]1NC(=O)[C@H](CC(C)C)NC(=O)[C@H](C)NC(=O)[C@@H](NC(=O)[C@H](CC(C)C)NC(=O)[C@H](CCC(=O)O)NC(=O)[C@@H]2CCCN2C(=O)[C@H](Cc2c[nH]c3ccccc23)NC(=O)[C@H](Cc2c[nH]c3ccccc23)NC(=O)[C@H](CC(=O)O)NC(=O)[C@H](Cc2ccc(O)cc2)NC(=O)[C@@H](N)CCSC)CSCc2cccc(c2)CSC[C@@H](C(N)=O)NC1=O [GIP-254] (H-MYDWWPELCALIC-NH2; linker 9-13 via mXylylene)
10 to 79.4 | CC[C@H](C)[C@@H]1NC(=O)[C@H](CC(C)C)NC(=O)[C@H](C)NC(=O)[C@@H](NC(=O)[C@H](CC(C)C)NC(=O)[C@H](CCC(=O)O)NC(=O)[C@@H]2CCCN2C(=O)[C@H](Cc2c[nH]c3ccccc23)NC(=O)[C@H](Cc2c[nH]c3ccccc23)NC(=O)CCC(=O)O)CSCc2cccc(c2)CSC[C@@H](C(N)=O)NC1=O [GIP-255, HO-Succinyl-Trp-Trp-Pro-Glu-Leu-[Cys(3MeBn)-Ala-Leu-Ile-Cys]-NH2] (Suc-WWPELCALIC-NH2; linker 6-10 via mXylylene)
10 to 79.4 | CC[C@H](C)[C@@H]1NC(=O)[C@H](CC(C)C)NC(=O)[C@H](C)NC(=O)[C@@H](NC(=O)[C@H](CC(C)C)NC(=O)[C@H](CCC(=O)O)NC(=O)[C@@H]2CCCN2C(=O)[C@H](Cc2c[nH]c3ccccc23)NC(=O)[C@H](Cc2c[nH]c3ccccc23)NC(=O)CCC(=O)O)CSCc2cccc(c2)CSCCNC1=O [GIP-256, HO-Succinyl-Trp-Trp-Pro-Glu-Leu-[Cys(3MeBn)-Ala-Leu-Ile-AET]] (Suc-WWPELCALI; linker 6-C via X7)
10 to 79.4 | CC[C@H](C)[C@@H]1NC(=O)[C@H](CC(C)C)NC(=O)[C@H](C)NC(=O)[C@@H](NC(=O)[C@H](CC(C)C)NC(=O)[C@H](CCC(=O)O)NC(=O)[C@@H]2CCCN2C(=O)[C@H](Cc2c[nH]c3ccccc23)NC(=O)[C@H](Cc2c[nH]c3ccccc23)NC(=O)CCC(=O)O)CSCc2cccc(n2)CSC[C@@H](C(N)=O)NC1=O [GIP-257, HO-Succinyl-Trp-Trp-Pro-Glu-Leu-[Cys(2Lut)-Ala-Leu-Ile-Cys]-NH2] (Suc-WWPELCALIC-NH2; linker 6-10 via Pyridine(2,6-diCH2))
10 to 79.4 | CC[C@H](C)[C@@H]1NC(=O)[C@H](CC(C)C)NC(=O)C(C)(C)NC(=O)[C@@H](NC(=O)[C@@H](CC(C)C)NC(=O)[C@H](CCC(=O)O)NC(=O)[C@@H]2CCCN2C(=O)[C@H](Cc2c[nH]c3ccccc23)NC(=O)[C@H](Cc2c[nH]c3ccccc23)NC(=O)CCC(=O)O)CSCc2cccc(c2)CSC[C@@H](C(N)=O)NC1=O [GIP-258, HO-Succinyl-Trp-Trp-Pro-Glu-leu-[Cys(3MeBn)-Aib-Leu-Ile-Cys]-NH2] (Suc-WWPE[dL]C[Aib]LIC-NH2; linker 6-10 via mXylylene)
10 to 79.4 | CC[C@H](C)[C@@H]1NC(=O)[C@H](CC(C)C)NC(=O)C(C)(C)NC(=O)[C@@H](NC(=O)[C@H](CC(C)C)NC(=O)[C@H](CCC(=O)O)NC(=O)[C@@H]2CCCN2C(=O)[C@H](Cc2c[nH]c3ccccc23)NC(=O)[C@H](Cc2c[nH]c3ccccc23)NC(=O)CCC(=O)O)CSCc2cccc(c2)CSC[C@@H](C(N)=O)NC1=O [GIP-259, HO-Succinyl-Trp-Trp-Pro-Glu-Leu-[Cys(3MeBn)-Aib-Leu-Ile-Cys]-NH2] (Suc-WWPELC[Aib]LIC-NH2; linker 6-10 via mXylylene)
10 to 79.4 | CC[C@H](C)[C@@H]1NC(=O)[C@H](CCC(C)C)NC(=O)C(C)(C)NC(=O)[C@@H](NC(=O)[C@H](CC(C)C)NC(=O)[C@H](CCC(=O)O)NC(=O)[C@@H]2CCCN2C(=O)[C@H](Cc2c[nH]c3ccccc23)NC(=O)[C@H](Cc2c[nH]c3ccccc23)NC(=O)CCC(=O)O)CSCc2cccc(c2)CSC[C@@H](C(N)=O)NC1=O [GIP-260, HO-Succinyl-Trp-Trp-Pro-Glu-Leu-[Cys(3MeBn)-Aib-Hle-Ile-Cys]-NH2] (Suc-WWPELC[Aib][hLeu]IC-NH2; linker 6-10 via mXylylene)
10 to 79.4 | CC[C@H](C)[C@@H]1NC(=O)[C@H](CC(C)C)NC(=O)C2(CCOCC2)NC(=O)[C@@H](NC(=O)[C@H](CC(C)C)NC(=O)[C@H](CCC(=O)O)NC(=O)[C@@H]2CCCN2C(=O)[C@H](Cc2c[nH]c3ccccc23)NC(=O)[C@H](Cc2c[nH]c3ccccc23)NC(=O)CCC(=O)O)CSCc2cccc(c2)CSC[C@@H](C(N)=O)NC1=O [GIP-261, HO-Succinyl-Trp-Trp-Pro-Glu-Leu-[Cys(3MeBn)-Thp-Leu-Ile-Cys]-NH2] (Suc-WWPELC[Thp]LIC-NH2; linker 6-10 via mXylylene)
10 to 79.4 | CC[C@H](C)[C@@H]1NC(=O)[C@H](CC(C)C)NC(=O)C2(CCOCC2)NC(=O)[C@@H](NC(=O)[C@@H](CC(C)C)NC(=O)[C@H](CCC(=O)O)NC(=O)[C@@H]2C[C@@H](O)CN2C(=O)[C@H](Cc2c[nH]c3ccc(Cl)cc23)NC(=O)[C@H](Cc2ccccc2Cl)NC(=O)[C@H](CC(=O)O)NC(C)=O)CSCc2cccc(n2)CSC[C@@H](C(N)=O)NC1=O [GIP-262, Ac-Asp-Ocf-5Clw-Hyp-Glu-leu-[Cys(2Lut)-Thp-Leu-Ile-Cys]-NH2] (Ac-D[Phe(2-Cl)][Trp(5-Cl)][Hyp]E[dL]C[Thp]LIC-NH2; linker 7-11 via Pyridine(2,6-diCH2))
10 to 79.4 | CC[C@H](C)[C@@H]1NC(=O)[C@H](CC(C)C)NC(=O)C2(CCOCC2)NC(=O)[C@@H](NC(=O)[C@@H](CC(C)C)NC(=O)[C@H](CCC(=O)O)NC(=O)[C@@H]2C[C@@H](O)CN2C(=O)[C@H](Cc2c[nH]c3ccc(Cl)cc23)NC(=O)[C@H](Cc2cc(Cl)cc(Cl)c2)NC(=O)[C@H](CC(=O)O)NC(C)=O)CSCc2cccc(n2)CSC[C@@H](C(N)=O)NC1=O [GIP-263, Ac-Asp-Egn-5Clw-Hyp-Glu-leu-[Cys(2Lut)-Thp-Leu-Ile-Cys]-NH2] (Ac-D[Phe(3,5-Cl2)][Trp(5-Cl)][Hyp]E[dL]C[Thp]LIC-NH2; linker 7-11 via Pyridine(2,6-diCH2))

Same assay, conditions: competition with 20 nM GIP-057, 4° C., 1 hour, read-out: pIC50 Category (converted)

IC50 [nM] | SMILES
10 to 79.4 | CC[C@H](C)[C@@H]1NC(=O)[C@H](CC(C)C)NC(=O)[C@H](CCCCN)NC(=O)[C@@H](NC(=O)[C@H](CC(C)C)NC(=O)[C@H](CCC(=O)O)NC(=O)[C@@H]2CCCN2C(=O)[C@H](Cc2c[nH]c3ccccc23)NC(=O)[C@H](Cc2c[nH]c3ccccc23)NC(=O)[C@H](CC(=O)O)NC(=O)[C@H](Cc2ccc(O)cc2)NC(=O)[C@@H](N)CCSC)CSCc2cccc(c2)CSC[C@@H](C(N)=O)NC1=O [GIP-243] (H-MYDWWPELCKLIC-NH2; linker 9-13 via mXylylene)
